Measured values as given in PMC3389674, “Comparison of Soluble Guanylate Cyclase Stimulators and Activators in Models of Cardiovascular Disease Associated with Oxidative Stress” (Frontiers in Pharmacology, 2012).
Positions count from the first letter of the chain named.

Tests used:
[1] = tested on: all other proteins tested (human enzymes, ion channels, transporters, and G-protein-coupled receptors); test: in vitro selectivity profile: cell-based functional assays, other non-sGC proteins
Description: The secondary pharmacological profile (i.e., sGC-independent activity) of GSK2181236A was assessed in cell-based functional assays by characterizing the interaction between GSK2181236A and 38 distinct human enzymes, ion channels, transporters, and G-protein-coupled receptors including 5-HT (5-HT1B/2A/2C/3), 5-HT transporter (SERT), adenosine (A2a), adrenergic (α1B/2C, β2), Aurora B kinase, cycoloxygenase-2 (COX-2), CaV1.2, cytochrome P450 (CYP2C19, 2D6, and 3A4), dopamine (D2), dopamine transporter (DAT), gamma-aminobutyric acid (GABAA), glycogen synthase kinase-3 (GSK3β) histamine (H1), KV1.5, KV7.1, KV11.1, lymphocyte-specific protein tyrosine kinase (LCK), L-monoamine oxidase (MAO-B) muscarinic (M1/2), NaV1.5, nicotinic (α1 nAChR), noradrenaline transporter (NET), opioid (κ, μ), organic anion transporting polypeptide C (OATP1B1), phosphodiesterase 5 (PDE5), phosphatidylinositol 3-kinase (PI3Kγ), pregnane X receptor (PXR), tachykinin (NK1), and vasopressin (V1a).

rat sGC = molecular target: T1, rat sGC (Rattus norvegicus, UniProt P20595); test: primary cell-free rat sGC enzyme assay (cGMP formation); type: biochemical; details: data not shown
T1 sequence (P20595 1-619): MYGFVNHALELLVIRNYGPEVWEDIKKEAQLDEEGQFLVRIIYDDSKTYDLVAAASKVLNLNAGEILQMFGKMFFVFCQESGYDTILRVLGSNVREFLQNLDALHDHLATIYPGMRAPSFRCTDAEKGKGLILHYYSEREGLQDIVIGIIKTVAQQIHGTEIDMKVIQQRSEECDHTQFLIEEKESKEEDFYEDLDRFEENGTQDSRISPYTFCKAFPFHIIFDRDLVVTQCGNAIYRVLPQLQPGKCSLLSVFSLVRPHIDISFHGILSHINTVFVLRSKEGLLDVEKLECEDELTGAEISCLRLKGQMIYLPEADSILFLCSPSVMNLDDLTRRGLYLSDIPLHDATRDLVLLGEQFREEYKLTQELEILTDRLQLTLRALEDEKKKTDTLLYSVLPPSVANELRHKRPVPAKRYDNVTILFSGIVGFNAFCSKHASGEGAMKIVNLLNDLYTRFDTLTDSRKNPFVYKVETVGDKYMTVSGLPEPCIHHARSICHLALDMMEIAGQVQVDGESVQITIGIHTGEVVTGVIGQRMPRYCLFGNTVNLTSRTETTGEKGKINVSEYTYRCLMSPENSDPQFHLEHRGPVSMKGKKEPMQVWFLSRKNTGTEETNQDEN
T1 sequence (P19686 1-690 partner): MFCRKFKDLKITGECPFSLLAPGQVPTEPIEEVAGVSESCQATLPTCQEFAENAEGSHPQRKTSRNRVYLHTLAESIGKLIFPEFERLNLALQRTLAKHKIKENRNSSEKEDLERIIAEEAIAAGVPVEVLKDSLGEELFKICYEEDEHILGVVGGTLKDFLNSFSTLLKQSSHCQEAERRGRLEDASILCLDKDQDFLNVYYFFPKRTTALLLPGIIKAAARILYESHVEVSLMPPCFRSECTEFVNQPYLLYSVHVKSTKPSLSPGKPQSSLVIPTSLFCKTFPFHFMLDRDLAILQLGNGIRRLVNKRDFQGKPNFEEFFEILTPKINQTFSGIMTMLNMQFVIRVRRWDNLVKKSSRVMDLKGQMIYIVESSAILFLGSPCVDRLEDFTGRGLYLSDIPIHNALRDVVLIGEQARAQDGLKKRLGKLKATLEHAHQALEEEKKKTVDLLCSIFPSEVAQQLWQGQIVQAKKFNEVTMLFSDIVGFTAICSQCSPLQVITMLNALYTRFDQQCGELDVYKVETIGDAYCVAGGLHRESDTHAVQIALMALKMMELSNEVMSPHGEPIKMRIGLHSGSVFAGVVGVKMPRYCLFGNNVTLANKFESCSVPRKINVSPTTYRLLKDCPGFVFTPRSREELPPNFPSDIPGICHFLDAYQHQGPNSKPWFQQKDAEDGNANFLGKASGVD

human sGC = molecular target: T2, human sGC (Homo sapiens, UniProt Q02153); test: primary cell-free human sGC enzyme assay (cGMP formation); type: biochemical; details: data not shown
T2 sequence (Q02153 1-619): T1 sequence (P20595 1-619) with S171N, D205E, K247N, A299T, N615K, E618D, N619D
T2 sequence (Q02108 1-690 partner): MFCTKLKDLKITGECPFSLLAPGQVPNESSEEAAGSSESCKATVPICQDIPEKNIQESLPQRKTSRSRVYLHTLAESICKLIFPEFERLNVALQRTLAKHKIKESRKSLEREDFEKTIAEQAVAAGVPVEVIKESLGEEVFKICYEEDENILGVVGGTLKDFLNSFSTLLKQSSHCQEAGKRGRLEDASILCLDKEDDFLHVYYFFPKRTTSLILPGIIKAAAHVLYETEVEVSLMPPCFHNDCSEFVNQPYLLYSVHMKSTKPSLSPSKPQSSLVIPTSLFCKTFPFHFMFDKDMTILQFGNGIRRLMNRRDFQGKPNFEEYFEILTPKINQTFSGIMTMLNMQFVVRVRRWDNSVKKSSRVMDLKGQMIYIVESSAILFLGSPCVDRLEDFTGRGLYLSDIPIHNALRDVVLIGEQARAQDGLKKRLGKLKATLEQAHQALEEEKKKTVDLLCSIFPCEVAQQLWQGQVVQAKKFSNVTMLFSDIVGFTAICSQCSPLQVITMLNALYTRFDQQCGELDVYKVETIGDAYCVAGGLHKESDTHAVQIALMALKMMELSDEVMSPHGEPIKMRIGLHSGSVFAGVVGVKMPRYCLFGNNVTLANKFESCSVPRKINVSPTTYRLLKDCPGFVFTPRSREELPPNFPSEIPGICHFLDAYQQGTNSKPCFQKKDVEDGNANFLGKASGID

Cc1cc(-c2ccc(OC(F)(F)F)cc2)ccc1COc1ccccc1-c1cccc(-n2ncc(C(=O)O)c2C(F)(F)F)n1 [GSK2181236A, 1-(6-{2-[({3-methyl-4′-[(trifluoromethyl)oxy]-4-biphenylyl}methyl)oxy]phenyl}-2-pyridinyl)-5-(trifluoromethyl)-1H-pyrazole-4-carboxylic acid]
Interactions (EC50s or IC50s) at all other proteins tested [1]: ≥ 2500 nM | interaction with sGC more potent than any other non-sGC protein tested ([1]; cell-based assays): at least 23 fold | selectivity for sGC over all other tested proteins ([1]; vs P-VASP EC50 12.7 nM): ≥ 197 fold | EC50 (rat sGC): 27 nM | EC50 (human sGC): 25 nM
